A short description of the data set: in vitro. To be noted: human, hela cells, % viability.
Take `Cc1cccc(CCNC(=O)c2cccn(CC(=O)N(C)C3CCCCC3)c2=O)c1` [CBK286113]: the viability (usually a read-out of living cells in per cent, often relative to untreated cells) at 28.5 h, 10 µM is 104%.

As to `CCC(c1ccc(F)cc1)N(C)C(=O)Cn1cccc(C(=O)NC2CCCCC2)c1=O` (centres unmarked) [CBK286114], the viability at 28.5 h, 10 µM came to 96.4%.

For `CCn1cc(NC(=O)CC2CCN(Cc3cccc(C(F)(F)F)c3)CC2)cn1` [CBK286118], the viability at 28.5 h, 10 µM worked out at 89.9%.

Regarding `CC(=O)N1CCCC[C@H]2[C@H]1C[C@@H](c1ccccc1)N2C(=O)CN1CCCCCC1` [CBK286120], the viability at 28.5 h, 10 µM was found to be 117%.

On to `CC(C)c1ccc(C(C)NC(=O)Cn2cc(C(=O)NC3CCCC3)ccc2=O)cc1` (centres unmarked) [CBK286121], for which the viability at 28.5 h, 10 µM worked out at 103%.

For the compound `CC(CNC(=O)c1cccn(CC(=O)Nc2ccc(F)cc2)c1=O)N1CCCCCC1` (centres unmarked) [CBK286123], the viability at 28.5 h, 10 µM is 97.5%.

As for `Cc1ccccc1Cc1cccc(C2CCN(S(=O)(=O)c3cn[nH]c3)CC2)n1` [CBK286125], the viability at 28.5 h, 10 µM was 90.8%.

Turning to `Cc1nn(C)cc1S(=O)(=O)N1CCCC(c2cccc(Cc3ccccc3Cl)n2)C1` (centres unmarked) [CBK286127], the viability at 28.5 h, 10 µM was 106%.

With `O=C1N(CCc2ccccc2)CC=CCC12CN(Cc1ccc3[nH]ccc3c1)CCO2` (centres unmarked) [CBK286130], the viability at 28.5 h, 10 µM was 105%.

Take `Cc1cccc(Cc2cccc(C3CCCN(S(=O)(=O)c4cn(C)nc4C)C3)n2)c1` (centres unmarked) [CBK286131]: the viability at 28.5 h, 10 µM amounted to 101%.

Regarding `Cc1cccnc1Nc1ccc(C2CCCCN2Cc2ccc3nccnc3c2)cn1` (centres unmarked) [CBK286133], the viability at 28.5 h, 10 µM is 89.8%.

Regarding `CC(=O)Nc1ccc(C(=O)N2CCCC(c3cccc(Cc4ccc(Cl)cc4)n3)C2)cc1` (centres unmarked) [CBK286134], the viability at 28.5 h, 10 µM was 99.9%.

With `COc1ccc(CC(=O)N2CCCC(c3nccnc3-c3cccc(C)c3)C2)cc1` (centres unmarked) [CBK286137], the viability at 28.5 h, 10 µM worked out at 94.1%.

Turning to `COc1ccccc1Cc1cccc(C2CCCN2C(=O)Cc2c[nH]c3ccccc23)n1` (centres unmarked) [CBK286139], the viability at 28.5 h, 10 µM was determined as 95.2%.

Take `Cc1ccccc1Cc1cccc(C2CCN(C(=O)c3ccc(F)cc3)CC2)n1` [CBK286140]: the viability at 28.5 h, 10 µM amounted to 88.4%.

For the compound `COc1cccc(Cc2cccc(C3CCN(C(=O)Cc4c[nH]c5ccccc45)CC3)n2)c1` [CBK286145], the viability at 28.5 h, 10 µM was determined as 93.1%.

Regarding `COc1cccc(Cc2cccc(C3CCN(C(=O)Cc4ccccc4)CC3)n2)c1` [CBK286147], the viability at 28.5 h, 10 µM turned out to be 96.9%.

`Cc1cccc(-c2cncc(C3CCCN(C(=O)Cc4c[nH]c5ccccc45)C3)n2)c1` (centres unmarked) [CBK286149]: the viability at 28.5 h, 10 µM is 84.1%.

As to `Cn1cc(CN2CCC(c3cncc(-c4cccc(C(F)(F)F)c4)n3)CC2)cn1` [CBK286150], the viability at 28.5 h, 10 µM was determined as 78.4%.

As for `O=C(CN1CCC(c2cncc(-c3cccc(C(F)(F)F)c3)n2)CC1)N1CCCC1` [CBK286152], the viability at 28.5 h, 10 µM stood at 94.3%.

Consider `COc1cccc(-c2cncc(C3CCN(C(=O)CCOc4ccccc4)CC3)n2)c1` [CBK286153], for which the viability at 28.5 h, 10 µM is 88.9%.

Turning to `Cc1ccccc1-c1cncc(C2CCN(C(=O)CCOc3ccccc3)CC2)n1` [CBK286154], the viability at 28.5 h, 10 µM worked out at 99%.

Consider `CCn1ncc(S(=O)(=O)N2CCCC(c3cccc(-c4cccc(OC)c4)n3)C2)c1C` (centres unmarked) [CBK286155], for which the viability at 28.5 h, 10 µM is 96.8%.

With `CCOc1ccc(NC(c2ccccc2)c2cc3cc(OC)ccc3[nH]c2=O)cc1` (centres unmarked) [CBK286157], the viability at 28.5 h, 10 µM is 81.7%.

In the case of `COc1ccc(-c2ccccc2)cc1NCc1cc2cc(OC)c(OC)cc2[nH]c1=O` [CBK286160], the viability at 28.5 h, 10 µM was 99.5%.

Turning to `Cc1ccc2nc(O)c(CNc3ccc(-c4nc5cc(C)ccc5[nH]4)cc3)cc2c1` [CBK286161], the viability at 28.5 h, 10 µM amounted to 89.7%.

With `Cc1ccc2cc(CNc3ccc4c(c3)-c3ccccc3S(=O)(=O)N4)c(=O)[nH]c2c1` [CBK286163], the viability at 28.5 h, 10 µM is 70.6%.

Regarding `Cc1cc2cc(CNc3cc(-c4ccccc4)ccc3O)c(=O)[nH]c2cc1C` [CBK286164], the viability at 28.5 h, 10 µM amounted to 82.7%.

As for `COc1ccc(CCNC2CCN(Cc3ccccc3)CC2c2ccccc2)cc1OC` (centres unmarked) [CBK286166], the viability at 28.5 h, 10 µM turned out to be 92.8%.

As to `O=C(C1c2ccccc2Oc2ccccc21)N1C2CCC1CC(O)(c1ccco1)C2` (centres unmarked) [CBK286169], the viability at 28.5 h, 10 µM came out at 93.8%.

Regarding `COc1cccc(CN2CCN(CC(=O)N3CCCC3)[C@@H](C)C2)c1` [CBK286171], the viability at 28.5 h, 10 µM was 78.1%.

In the case of `CC(C)[C@H]1CN(Cc2ccccc2F)CCN1C(=O)Cn1ncc2ccccc2c1=O` [CBK286172], the viability at 28.5 h, 10 µM stood at 82.2%.

On to `CC[C@@H](Cn1ncc2ccccc2c1=O)NC(=O)CC1c2ccccc2Oc2ccccc21` [CBK286174], for which the viability at 28.5 h, 10 µM stood at 89.5%.

`O=c1oc2ccccc2n1C1CCN(Cc2nc3ccccc3n2Cc2ccccc2)CC1` [CBK286176]: the viability at 28.5 h, 10 µM worked out at 102%.

Regarding `Cc1nc2c(c(N3CCN(c4ccc(O)cc4)CC3)n1)CN(Cc1ccccc1)CC2` [CBK286177], the viability at 28.5 h, 10 µM is 90.2%.

As to `O=c1n(Cc2ccccc2F)nc2nnc(-c3ccccc3)c(-c3ccccc3)n12` [CBK286179], the viability at 28.5 h, 10 µM stood at 80.9%.

Regarding `COc1ccc(Cn2nc3nnc(-c4ccccc4)c(-c4ccccc4)n3c2=O)cc1` [CBK286180], the viability at 28.5 h, 10 µM amounted to 88.8%.

In the case of `COc1ccc(Cn2nc3nnc(-c4ccc(F)cc4)c(-c4ccc(F)cc4)n3c2=O)cc1` [CBK286183], the viability at 28.5 h, 10 µM was 107%.

For `COc1ccccc1Cn1nc2nnc(-c3ccc(F)cc3)c(-c3ccc(F)cc3)n2c1=O` [CBK286184], the viability at 28.5 h, 10 µM worked out at 97.7%.

In the case of `COc1ccccc1Cn1nc2nnc(-c3ccccc3)c(-c3ccccc3)n2c1=O` [CBK286185], the viability at 28.5 h, 10 µM was 88.6%.

Turning to `Cc1nc2cc(-c3nccn3C)nn2c(N2CCN(c3ccc4c(c3)OCCO4)CC2)c1C` [CBK286186], the viability at 28.5 h, 10 µM worked out at 90.4%.

On to `COc1ccc(N2CCN(c3cc(C)nc4cc(-c5nccn5C)nn34)CC2)cc1` [CBK286187], for which the viability at 28.5 h, 10 µM was 87.8%.

Consider `Cc1cc(N2CCN(c3ccc(O)cc3)CC2)n2nc(-c3nccn3C)cc2n1` [CBK286188], for which the viability at 28.5 h, 10 µM was 91.2%.

Consider `COc1cc2c(cc1OC)C1c3ccccc3NC(c3ccc(F)cc3)N1CC2` (centres unmarked) [CBK286191], for which the viability at 28.5 h, 10 µM was determined as 102%.

On to `COc1cc2c(cc1OC)C1c3ccccc3N(Cc3ccccc3)C(=O)N1CC2` (centres unmarked) [CBK286192], for which the viability at 28.5 h, 10 µM worked out at 86.8%.

Regarding `COc1cc2c(cc1OC)C1c3ccccc3NC(c3ccc(C)cc3)N1CC2` (centres unmarked) [CBK286195], the viability at 28.5 h, 10 µM is 72.7%.

As for `Fc1ccc(CN(Cc2ccco2)C2CCN(c3ccc4c(c3)OCO4)CC2)cc1` [CBK286197], the viability at 28.5 h, 10 µM came to 88.7%.

Take `COCC(=O)N1CCc2sccc2C1c1ccc(NC(=O)c2ccco2)cc1` (centres unmarked) [CBK286200]: the viability at 28.5 h, 10 µM is 95.6%.

As for `O=C(CN1C(=O)[C@@H]2CCCN2c2ncccc21)NC(c1ccccc1)c1ccccc1` [CBK286205], the viability at 28.5 h, 10 µM is 121%.

Regarding `O=C(CN1C(=O)[C@H]2CCCN2c2ncccc21)NCCc1c[nH]c2ccccc12` [CBK286206], the viability at 28.5 h, 10 µM was 107%.

Take `O=C(CCc1ccccc1)N1CCCC1c1cccc(Cc2ccccc2F)n1` (centres unmarked) [CBK286208]: the viability at 28.5 h, 10 µM was 118%.

As to `O=S(=O)(c1ccc(F)cc1)N1CCCC1c1cccc(Cc2cccc(F)c2)n1` (centres unmarked) [CBK286209], the viability at 28.5 h, 10 µM is 93.9%.

As to `O=C(Cc1ccc(F)cc1)N1CCCC(c2nccnc2-c2cccc(C(F)(F)F)c2)C1` (centres unmarked) [CBK286210], the viability at 28.5 h, 10 µM was 99.8%.

As to `O=C(COc1ccc(F)cc1)N1CCCC1c1cccc(Cc2ccccc2)n1` (centres unmarked) [CBK286214], the viability at 28.5 h, 10 µM is 105%.

For the compound `O=C(C1CCCC1)N1CCCC(c2nccnc2-c2cccc(C(F)(F)F)c2)C1` (centres unmarked) [CBK286221], the viability at 28.5 h, 10 µM turned out to be 110%.

In the case of `O=C(c1cccnc1)N1CCC(c2cccc(Cc3ccc(C(F)(F)F)cc3)n2)CC1` [CBK286222], the viability at 28.5 h, 10 µM was 95.4%.

Take `O=C(Cc1ccccn1)N1CCC(c2cccc(Cc3ccc(C(F)(F)F)cc3)n2)CC1` [CBK286224]: the viability at 28.5 h, 10 µM is 101%.

As to `COc1ccc(Cc2cccc(C3CCN(C(=O)Cc4ccc(F)cc4)CC3)n2)cc1` [CBK286225], the viability at 28.5 h, 10 µM amounted to 95.6%.

For `COc1ccccc1Cc1cccc(C2CCN(C(=O)Cc3c[nH]c4ccccc34)CC2)n1` [CBK286226], the viability at 28.5 h, 10 µM was 92.8%.

Turning to `COc1ccccc1Cc1cccc(C2CCN(CC(=O)Nc3nccs3)CC2)n1` [CBK286227], the viability at 28.5 h, 10 µM worked out at 95.1%.

In the case of `O=S(=O)(c1ccc(F)cc1)N1CCCC1c1cccc(Cc2ccccc2)n1` (centres unmarked) [CBK286231], the viability at 28.5 h, 10 µM came to 97.3%.

For the compound `COc1ccc(CC(=O)N2CCC(c3cccc(Cc4ccccc4C)n3)CC2)cc1` [CBK286232], the viability at 28.5 h, 10 µM is 93.5%.

Turning to `COc1ccc(CC(=O)N2CCCC2c2cccc(Cc3ccc(F)cc3)n2)cc1` (centres unmarked) [CBK286233], the viability at 28.5 h, 10 µM is 89.1%.

For `COc1ccccc1Cc1cccc(C2CCN(C(=O)c3ccc(F)cc3)CC2)n1` [CBK286237], the viability at 28.5 h, 10 µM is 108%.

`COc1ccccc1Cc1cccc(C2CCCN2C(=O)CCc2ccc(F)cc2)n1` (centres unmarked) [CBK286238]: the viability at 28.5 h, 10 µM worked out at 101%.

For `COc1ccccc1Cc1cccc(C2CCCN2C(=O)c2ccc(F)cc2)n1` (centres unmarked) [CBK286239], the viability at 28.5 h, 10 µM turned out to be 99.1%.

On to `COc1ccccc1Cc1cccc(C2CCN(C(=O)Cc3ccccc3)CC2)n1` [CBK286240], for which the viability at 28.5 h, 10 µM stood at 88.1%.

Consider `Cc1cccc(-c2nccnc2C2CCCN(C(=O)COc3ccc(F)cc3)C2)c1` (centres unmarked) [CBK286241], for which the viability at 28.5 h, 10 µM came to 88.1%.

Regarding `Cn1cc(CN2CCCC(c3cccc(Cc4ccc(Cl)cc4)n3)C2)cn1` (centres unmarked) [CBK286242], the viability at 28.5 h, 10 µM was 81.8%.

For the compound `CCC(=O)N1CCCC1c1nc(C)c2c(n1)N(CCc1ccccc1OC)CCC2` (centres unmarked) [CBK286246], the viability at 28.5 h, 10 µM turned out to be 95.4%.

`O=C(Cn1cc(C(=O)NC2CCCC2)ccc1=O)NCC1(c2ccccc2)CCCC1` [CBK286248]: the viability at 28.5 h, 10 µM is 94.7%.

For `O=S(=O)(c1ccc(F)cc1)N1CCCC1c1cccc(Cc2ccc(F)cc2)n1` (centres unmarked) [CBK286249], the viability at 28.5 h, 10 µM was 88%.

In the case of `CCn1cc(CN2CCOC(c3cccc(-c4ccc(OC)cc4)n3)C2)c(C)n1` (centres unmarked) [CBK286250], the viability at 28.5 h, 10 µM was 84.4%.

As for `COc1cccc(-c2cnc(N(C)C)nc2C2CCCN2Cc2ccc3ncccc3c2)c1` (centres unmarked) [CBK286251], the viability at 28.5 h, 10 µM came out at 85.5%.

(Values after article PMC12040169 (PLOS Biology, 2025).)
